Measured values reported in EP4786487A1, “PEPTIDE” (Peptidream Inc, priority 2023, dated 2025).
Positions of bridges follow the written chain, without caps; N, C: chain ends. Non-standard residues stand in square brackets, D forms with d. Residues, ends and D or L forms follow the SMILES beside them. *: point of attachment. Phe(4-(4-pyridyl)) = N[C@@H](Cc1ccc(-c2ccncc2)cc1)C(=O)O; Phe(3-OCH2COOH) = N[C@@H](Cc1cccc(OCC(=O)O)c1)C(=O)O; Phe(3-CONH2) = NC(=O)c1cccc(C[C@H](N)C(=O)O)c1; Phe(4-CONH2) = NC(=O)c1ccc(C[C@H](N)C(=O)O)cc1; Phe(4-COOH) = N[C@@H](Cc1ccc(C(=O)O)cc1)C(=O)O; Trp(7-aza) = N[C@@H](Cc1c[nH]c2ncccc12)C(=O)O; Bip = N[C@@H](Cc1ccc(-c2ccccc2)cc1)C(=O)O; Gly(Nα-CH2CH2CONH2) = NC(=O)CCNCC(=O)O; Gly(N(CH2)3COOH) = O=C(O)CCCNCC(=O)O; NMeF = CN[C@@H](Cc1ccccc1)C(=O)O; 3Pal = N[C@@H](Cc1cccnc1)C(=O)O; 4Pal = N[C@@H](Cc1ccncc1)C(=O)O; Carboxymethyl = O=C(O)C*; NMeA = CN[C@@H](C)C(=O)O; Sar = CNCC(=O)O

What was measured:
Assay type in all cases: cell-based
[1] = molecular target: T1, Myostatin (Homo sapiens, UniProt O14793); test: Reporter gene assay for myostatin signaling in HepG2 cell line, Evaluation Procedure (1), myostatin inhibition; settings: Method A: Myostatin 10 ng/mL; read-out: IC50 (Luciferase) Myostatin HepG2
T1 construct: active myostatin (also called mature myostatin) is a homodimer consisting of two C-terminal growth factor domains; purchased R&D systems 788-G8/CF
T1 sequence (O14793 267-375): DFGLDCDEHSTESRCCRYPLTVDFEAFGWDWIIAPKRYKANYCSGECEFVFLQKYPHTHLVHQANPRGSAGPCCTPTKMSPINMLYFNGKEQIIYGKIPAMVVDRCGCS
Protocol: (§1) In this Example, the in vitro myostatin inhibitory effects of the peptides synthesized in Examples 1 and 2 were evaluated using a reporter gene assay for myostatin signaling in HepG2 cell line.
(§2) HepG2 cell line (HB-8065, ATCC) cultured in EMEM (055-08975, WAKO Industries) containing 10% FBS (10270106, Gibco) and 50 µg/mL gentamicin (11980-14, Nacalai Tesque) was seeded in 96-well plates (167008, Thermo) at 2.0 × 10^4 cells/well and incubated in a CO2 incubator (37°C, 5% CO2) for 24 hours. The pGL3(CAGA)12-luc plasmid, namely a pGL3 vector (E1751, Promega) having a luciferase gene inserted downstream of a promoter sequence with 12 CAGA repeats attached, was added to the wells along with a transfection reagent (X-treamGENE9 DNA Transfection Reagent, 6365809001, Roche) at a concentration of 0.04 µg/well. The cell line was cultured in a CO2 incubator (37°C, 5% CO2) for 24 hours for transfection. The medium was discarded and replaced with EMEM containing 50 µL/well of 0.1% bovine serum albumin (A7030, Sigma) and 50 µg/mL gentamicin, and incubated in a CO2 incubator (37°C, 5% CO2) for 2 hours.
(§3) Myostatin (788-G8/C, R&D systems) or GDF-11 (1958-GD-G8/CF, R&D systems) was added so that the final concentrations were those listed in Table 5.
(§4) A 4-fold dilution series of various peptides synthesized in Examples 1 and 2 was added to achieve 0.006-100 nmol/L (myostatin inhibition) and 0.12-2000 nmol/L (GDF-11 inhibition). At this time, blank wells, in which neither myostatin, GDF-11, nor each peptide was added, were also prepared and incubated in a CO2 incubator (37°C, 5% CO2) for 20 to 24 hours.
(§5) The medium containing the cells was removed, and a mixture containing PBS (14190144, Thermo) and a chromogenic substrate One-Glo Luciferase Assay System (E6120, Promega) at a ratio of 1:1 was added to each well at 100 µL/well. This was stirred with a plate shaker for 5 min and transferred to a 384-well plate (3570, Corning) at a volume of 20 µL/well.
(§6) The plate was centrifuged at 1,000 × g for 1 min and the luminescence signal (700 nm luminescence) was measured using a plate reader (Envision 2104, PerkinElmer). Based on the measured values, IC50 values of the peptides were calculated using software (Prism 9, GraphPad). […]
(§7) In this Example, the in vitro myostatin inhibitory effects of the peptides synthesized in Examples 10 and 11 were evaluated according to the Evaluation Procedure (1) in Example 3.

[2] = test system: Myostatin; test: as above; settings: Method A; GDF-11 IC50 versus Myostatin IC50
Protocol: as §1, §2, §3, §4, §5, §6, §7

[3] = molecular target: T2, GDF-11 (Homo sapiens, UniProt O95390); test: Reporter gene assay for myostatin signaling in HepG2 cell line, Evaluation Procedure (1), GDF-11 inhibition; settings: Method A: GDF-11 10 ng/mL; read-out: IC50 (Luciferase) GDF-11 HepG2
T2 construct: purchased R&D systems 1958-GD-G8/CF
T2 sequence (O95390 299-407): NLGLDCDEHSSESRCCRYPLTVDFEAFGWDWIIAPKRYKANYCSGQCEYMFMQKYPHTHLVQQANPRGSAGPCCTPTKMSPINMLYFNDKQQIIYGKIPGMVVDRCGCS
Protocol: as §1, §2, §3, §4, §5, §6, §7

Compound | IC50 [1] [µM] | IC50 [3] [µM] | Selectivity [2]
CC[C@H](C)[C@@H]1NC(=O)[C@H](Cc2ccccc2)N(C)C(=O)[C@H](Cc2ccc(O)cc2)NC(=O)[C@H](Cc2c[nH]c3ncccc23)NC(=O)[C@H](C)NC(=O)CN(CCCC(=O)O)C(=O)CSC[C@H](C(=O)NCC(=O)N[C@H](CCC(=O)O)C(=O)NCC(=O)N[C@H](CCCCN)C(=O)O)NC(=O)[C@H](Cc2ccccc2)N(C)C(=O)[C@H](C)N(C)C(=O)[C@H](CC(C)C)NC(=O)[C@H](Cc2ccccc2)N(C)C(=O)[C@H](CCCNC(=N)N)NC(=O)[C@H](Cc2ccc(C(=O)O)cc2)NC(=O)[C@H](Cc2ccncc2)NC(=O)CN(C)C1=O [Myostatin_99_v31] ({CH2CO}-[Gly(N(CH2)3COOH)]A[Trp(7-aza)]Y[NMeF]I[Sar][4Pal][Phe(4-COOH)]R[NMeF]L[NMeA][NMeF][dC]G[dE]G[dK]-OH; thioether N-15) | 0.0547 | 1.34 | 25
CC[C@H](C)[C@@H]1NC(=O)[C@H](Cc2ccccc2)N(C)C(=O)[C@H](Cc2ccc(O)cc2)NC(=O)[C@H](Cc2c[nH]c3ncccc23)NC(=O)[C@H](C)NC(=O)CN(CCCC(=O)O)C(=O)CSC[C@H](C(=O)O)NC(=O)[C@H](Cc2ccccc2)N(C)C(=O)[C@H](C)N(C)C(=O)[C@H](CC(C)C)NC(=O)[C@H](Cc2ccccc2)N(C)C(=O)[C@H](CCCNC(=N)N)NC(=O)[C@H](Cc2cccc(C(N)=O)c2)NC(=O)[C@H](Cc2ccccc2)NC(=O)CN(C)C1=O [Myostatin_99_v45] ({CH2CO}-[Gly(N(CH2)3COOH)]A[Trp(7-aza)]Y[NMeF]I[Sar]F[Phe(3-CONH2)]R[NMeF]L[NMeA][NMeF][dC]-OH; thioether N-15) | 0.0128 | 0.332 | 26
CC[C@H](C)[C@@H]1NC(=O)[C@H](Cc2ccccc2)N(C)C(=O)[C@H](Cc2ccc(O)cc2)NC(=O)[C@H](Cc2c[nH]c3ncccc23)NC(=O)[C@H](C)NC(=O)CN(CCC(N)=O)C(=O)CSC[C@H](C(=O)O)NC(=O)[C@H](Cc2ccccc2)N(C)C(=O)[C@H](C)N(C)C(=O)[C@H](CC(C)C)NC(=O)[C@H](Cc2ccccc2)N(C)C(=O)[C@H](CCCNC(=N)N)NC(=O)[C@H](Cc2ccc(C(=O)O)cc2)NC(=O)[C@H](Cc2ccccc2)NC(=O)CN(C)C1=O [Myostatin_99_v46] ({CH2CO}-[Gly(Nα-CH2CH2CONH2)]A[Trp(7-aza)]Y[NMeF]I[Sar]F[Phe(4-COOH)]R[NMeF]L[NMeA][NMeF][dC]-OH; thioether N-15) | 0.0432 | 1.54 | 36
CC[C@H](C)[C@@H]1NC(=O)[C@H](Cc2ccccc2)N(C)C(=O)[C@H](Cc2ccc(O)cc2)NC(=O)[C@H](Cc2ccc(-c3ccncc3)cc2)NC(=O)[C@H](C)NC(=O)CN(CCCC(=O)O)C(=O)CSC[C@H](C(=O)O)NC(=O)[C@H](Cc2ccccc2)N(C)C(=O)[C@H](C)N(C)C(=O)[C@H](CC(C)C)NC(=O)[C@H](Cc2ccccc2)N(C)C(=O)[C@H](CCCNC(=N)N)NC(=O)[C@H](Cc2ccc(OCC(=O)O)cc2)NC(=O)[C@H](Cc2cccc(OCC(=O)O)c2)NC(=O)[C@H](C)N(C)C1=O [Myostatin_99_v83] ({CH2CO}-[Gly(N(CH2)3COOH)]A[Phe(4-(4-pyridyl))]Y[NMeF]I[NMeA][Phe(3-OCH2COOH)]Y(Carboxymethyl)R[NMeF]L[NMeA][NMeF][dC]-OH; thioether N-15) | 0.0209 | 3.01 | 144
CC[C@H](C)[C@@H]1NC(=O)[C@H](Cc2ccccc2)N(C)C(=O)[C@H](Cc2ccc(O)cc2)NC(=O)[C@H](Cc2ccc(-c3ccccc3)cc2)NC(=O)[C@H](C)NC(=O)CN(CCCC(=O)O)C(=O)CSC[C@H](C(=O)O)NC(=O)[C@H](Cc2ccccc2)N(C)C(=O)[C@H](C)N(C)C(=O)[C@H](CC(C)C)NC(=O)[C@H](Cc2ccccc2)N(C)C(=O)[C@H](CCCNC(=N)N)NC(=O)[C@H](Cc2ccc(OCC(=O)O)cc2)NC(=O)[C@H](Cc2cccc(OCC(=O)O)c2)NC(=O)[C@H](C)N(C)C1=O [Myostatin_99_v85] ({CH2CO}-[Gly(N(CH2)3COOH)]A[Bip]Y[NMeF]I[NMeA][Phe(3-OCH2COOH)]Y(Carboxymethyl)R[NMeF]L[NMeA][NMeF][dC]-OH; thioether N-15) | 0.0135 | 3.37 | 250

The remaining compounds from weak to strong by IC50 [1], led by results:

IC50 [1] [µM] | IC50 [3] [µM] | Compound | Selectivity [2]
0.0637 | 1.63 | CC[C@H](C)[C@@H]1NC(=O)[C@H](Cc2ccccc2)N(C)C(=O)[C@H](Cc2ccc(O)cc2)NC(=O)[C@H](Cc2c[nH]c3ncccc23)NC(=O)[C@H](C)NC(=O)CN(CCCC(=O)O)C(=O)CSC[C@H](C(=O)O)NC(=O)[C@H](Cc2ccccc2)N(C)C(=O)[C@H](C)N(C)C(=O)[C@H](CC(C)C)NC(=O)[C@H](Cc2ccccc2)N(C)C(=O)[C@H](CCCNC(=N)N)NC(=O)[C@H](Cc2cccnc2)NC(=O)[C@H](Cc2ccccc2)NC(=O)CN(C)C1=O [Myostatin_99_v41] ({CH2CO}-[Gly(N(CH2)3COOH)]A[Trp(7-aza)]Y[NMeF]I[Sar]F[3Pal]R[NMeF]L[NMeA][NMeF][dC]-OH; thioether N-15) | 26
0.0332 | 1.99 | CC[C@H](C)[C@@H]1NC(=O)[C@H](Cc2ccccc2)N(C)C(=O)[C@H](Cc2ccc(O)cc2)NC(=O)[C@H](Cc2c[nH]c3ncccc23)NC(=O)[C@H](C)NC(=O)CN(CCCC(=O)O)C(=O)CSC[C@H](C(=O)O)NC(=O)[C@H](Cc2ccccc2)N(C)C(=O)[C@H](C)N(C)C(=O)[C@H](CC(C)C)NC(=O)[C@H](Cc2ccccc2)N(C)C(=O)[C@H](CCCNC(=N)N)NC(=O)[C@H](Cc2ccc(OCC(=O)O)cc2)NC(=O)[C@H](Cc2ccccc2)NC(=O)CN(C)C1=O [Myostatin_99_v43] ({CH2CO}-[Gly(N(CH2)3COOH)]A[Trp(7-aza)]Y[NMeF]I[Sar]FY(Carboxymethyl)R[NMeF]L[NMeA][NMeF][dC]-OH; thioether N-15) | 60
0.0273 | 3.05 | CC[C@H](C)[C@@H]1NC(=O)[C@H](Cc2ccccc2)N(C)C(=O)[C@H](Cc2ccc(O)cc2)NC(=O)[C@H](Cc2ccc(-c3ccncc3)cc2)NC(=O)[C@H](C)NC(=O)CN(CCCC(=O)O)C(=O)CSC[C@H](C(=O)O)NC(=O)[C@H](Cc2ccccc2)N(C)C(=O)[C@H](C)N(C)C(=O)[C@H](CC(C)C)NC(=O)[C@H](Cc2ccccc2)N(C)C(=O)[C@H](CCCNC(=N)N)NC(=O)[C@H](Cc2ccc(OCC(=O)O)cc2)NC(=O)[C@H](Cc2cccc(OCC(=O)O)c2)NC(=O)CN(C)C1=O [Myostatin_99_v84] ({CH2CO}-[Gly(N(CH2)3COOH)]A[Phe(4-(4-pyridyl))]Y[NMeF]I[Sar][Phe(3-OCH2COOH)]Y(Carboxymethyl)R[NMeF]L[NMeA][NMeF][dC]-OH; thioether N-15) | 112
0.0084 | 0.81 | CC[C@H](C)[C@@H]1NC(=O)[C@H](Cc2ccccc2)N(C)C(=O)[C@H](Cc2ccc(O)cc2)NC(=O)[C@H](Cc2c[nH]c3ncccc23)NC(=O)[C@H](C)NC(=O)CN(CCCC(=O)O)C(=O)CSC[C@H](C(=O)O)NC(=O)[C@H](Cc2ccccc2)N(C)C(=O)[C@H](C)N(C)C(=O)[C@H](CC(C)C)NC(=O)[C@H](Cc2ccccc2)N(C)C(=O)[C@H](CCCNC(=N)N)NC(=O)[C@H](Cc2ccc(C(N)=O)cc2)NC(=O)[C@H](Cc2ccccc2)NC(=O)CN(C)C1=O [Myostatin_99_v44] ({CH2CO}-[Gly(N(CH2)3COOH)]A[Trp(7-aza)]Y[NMeF]I[Sar]F[Phe(4-CONH2)]R[NMeF]L[NMeA][NMeF][dC]-OH; thioether N-15) | 96
